# Experimental data: US20230414732A1, “COMPOSITIONS OF EMBEDDED EPITOPE RANDOM PEPTIDES (EERP) FOR TREATMENT OF IMMUNE-MEDIATED CONDITIONS, AND METHODS OF USE” (PALENA THERAPEUTICS, INC., priority 2020, published 2023)
# What was measured:
# [1] = test system: LPS-stimulated human monocytic cell line THP-1; assay: Inhibition of pro-inflammatory cytokine secretion by LPS-stimulated THP-1 cells (ELISA); assay type: cell-based; conditions: 1.5 hr pre-incubation, LPS 1 μg/mL 24 hr
# Protocol: Cell-based assays. Human monocytic cell line THP-1 (ATCC, Manassas, VA) was cultured in RPMI media supplemented with 10% fetal bovine serum (FBS) and antibiotics penicillin/streptomycin in a 37° C. 5% CO 2 incubator. Cells were plated at 0.25×10^6 cells/well in a 24-well cell culture plate and pre-incubated for 1.5 hr with Glatopa, PT-001 or PT-002 at the final concentration 0.1 μg/mL or 10 μg/mL each, followed by addition of lipopolysaccharide (LPS) at the final concentration of 1 μg/mL and incubation for 24 hr in a 37° C. 5% CO2 incubator. Plates were centrifuged and supernatants (100 μL) were tested for levels of pro-inflammatory cytokines IL-1β, IL-6 and TNF-α using commercial ELISA kits (R&D System for IL-1β, BioLegend for IL-6 and TNF-α). […] Percent inhibition is calculated as 100-(cytokine concentration in presence of inhibitor/cytokine concentration without inhibitor*100).
# [2] = test system: MOG-induced EAE in C57B1/6 female mice; assay: Prophylactic treatment of MOG35-55-induced EAE, a mouse model of MS; assay type: in vivo; conditions: for Incidence of EAE: 500 μg single dose co-administered with MOG 35-55 in CFA, scored Day 7 to Day 28
# Excerpt: FIG. 2 is a graph showing prophylactic treatment of MOG-induced EAE in mice (an animal model for multiple sclerosis (MS)) using an EERP according to the present invention. EAE was induced in C57B1/6 female mice at 10 weeks of age by MOG35-55 (Control; depicted as diamonds) and treated prophylactically by co-administration of Glatopa (depicted as triangles), PT-001 (YFAK random copolymer, depicted as open squares), or PT-002 (EERP consisting of linear random polypeptide YFAK with the peptide AYKAAA embedded in it; depicted as cross) at 500 μg/dose each. Mice (12 per treatment group) were monitored for signs of disease for 28 days post immunization. Numbers on the ordinate represent mean clinical score of clinical symptoms monitored for the days shown on the abscissa.
# FIG. 3 is a graph showing prophylactic treatment of MOG-induced EAE in mice using two different doses of an EERP according to the present invention. […] Mice (10 per treatment group) were monitored for signs of disease for 28 days post immunization. Numbers on the ordinate represent mean clinical score of clinical symptoms monitored for the days shown on the abscissa.
# The EERP of the invention is further tested in vivo in a prophylactic model of MS, EAE, which is induced in female mice of C57B1/6J strain by MOG 35-55 encephalitogenic peptide co-administered with the EERP in Complete Freund's Adjuvant. […] Disease severity is based on clinical observations and is assessed on the scale from 0 to 5. […]
# Prophylactic treatment of EAE, a mouse model of MS. […] Mice (12 per treatment group) were monitored daily in a blind fashion starting from Day 7 for signs of disease for 28 days post immunization. […]
# Prophylactic treatment of EAE, a mouse model of MS, by 2 different doses of EERP. […] Mice (10 per treatment group) were monitored daily in a blind fashion starting from Day 7 for signs of disease for 28 days post immunization. […]
# [3] = test system: relapsing forms of MS; conditions: cited from earlier work
# [4] = test system: experimental allergic encephalomyelitis (EAE); conditions: mouse model for multiple sclerosis; cited from earlier work
Compound,Percent inhibition (%) IL-1b ([1]; 0.1 μg/mL compound) [%],Percent inhibition (%) IL-6 ([1]; 0.1 μg/mL compound) [%],Percent inhibition (%) TNF-a ([1]; 0.1 μg/mL compound) [%],Percent inhibition (%) IL-1b ([1]; 10 μg/mL compound) [%],Percent inhibition (%) IL-6 ([1]; 10 μg/mL compound) [%],Percent inhibition (%) TNF-a ([1]; 10 μg/mL compound) [%],Incidence of EAE [2] [%],"Signs of disease (clinical score) ([2]; Example 2: 500 μg/dose, single dose in immunization emulsion, subcutaneous, 28 days post immunization)",Reduction in relapses [3],Suppression of EAE [4]
C[N+]1(C)CCC(OC(=O)C(O)(c2ccccc2)C2CCCC2)C1 (centres unmarked) [PT-001],21,−8,−5,77,84,34,0,did not exhibit any signs of disease,–,–
glatiramer acetate [Glatopa],22,−10,−162,42,−21,−37,67,–,–,–
"poly (Y, E, A, K) [Cop 1]",–,–,–,–,–,–,–,–,about 30%,capable of suppressing experimental allergic encephalomyelitis
